Data taken from patent US12077531B2, “Imidazopyridinone compound” (KISSEI PHARMACEUTICAL CO., LTD., priority 2018, dated 2024).
Like-named read-outs stand apart in the source and are kept apart here.

Legend:
[1] = Rat PK study: concentration of compounds in large intestine tissue and plasma; format: in vivo; conditions: male, SD, 3 mg/kg oral; for Kp at 8 h: large intestine tissue / plasma, read-out: C/P: ratio of the above Colon and Plasma; for AUC / Cmax: non-fasted; for AUC: read-out: AUC: area under the plasma test compound concentration-time curve (converted); for Cmax: read-out: Cmax: maximum plasma concentration of test compounds in the case of oral administration
Method: Test Example 3 Concentration of Compounds in Large Intestine Tissue
Test compounds (3 mg/kg/5 mL) prepared by 0.05% methylcellulose were orally administered to non-fasted rats (SD, 8-weeks-old, male, Japan SLC). Blood samples were collected from jugular vein at 0.25, 0.5, 1, 2, 4, 6 and 8 hours after the administration. Laparotomy was performed under isoflurane anesthesia and large intestine was isolated. Collected distal large intestine (about 5 cm) was cut open, and then the large intestine was washed with saline on a dish. After washing, the large intestine was minced by a small scissors. About 150 mg thereof was moved to tube. To the tube was added 100 μL of saline, the mixture was homogenized using shake master (1000 rpm×30 minutes). Samples were prepared by the addition with quadruple volume of saline as final volume. The concentrations of the test compound in large intestine tissue and plasma were measured through a quantitative analysis using liquid chromatography-mass spectrometry (LC/MS).

[2] = target: human PHD2184-418 (Homo sapiens (Human), UniProt Q9GZT9); test: PHD2 inhibitory test (fluorescence polarization, binding between PHD2 and HIF-1α); conditions: human PHD2184-418, FITC-labeled HIF-1α556-574, 2 μM 2-oxoglutarate, 37° C. 60 minutes
Chain of human PHD2184-418 (Q9GZT9 184-418): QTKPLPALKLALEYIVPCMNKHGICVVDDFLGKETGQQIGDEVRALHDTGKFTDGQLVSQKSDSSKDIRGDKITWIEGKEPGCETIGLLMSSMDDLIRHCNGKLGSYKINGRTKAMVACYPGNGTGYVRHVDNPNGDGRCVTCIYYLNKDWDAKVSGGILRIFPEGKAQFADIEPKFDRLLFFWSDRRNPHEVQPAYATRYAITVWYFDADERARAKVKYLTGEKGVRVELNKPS
How it was run: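 N-His-tagged human PHD2 (residues 184–418, E. coli-expressed) was preincubated with compound, then FITC-Ahx-HIF-1α556-574 peptide was added in pH 7.4 HEPES buffer with 10 μM MnCl2 and 2 μM 2-oxoglutarate. After 60 min at 37 °C, fluorescence polarization (ex 470/em 530 nm) was read. Inhibition was calculated against compound-free wells.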

[3] = system: TNBS induced colitis model rat; test: Therapeutic effect in TNBS induced colitis model rat (intestinal permeability of FITC); format: in vivo; conditions: po, 72 h, 3 mg/kg orally once a day for 3 days, SD rats, mean, test compounds-free group 0, TNBS-untreated group 100, read-out: Inhibition (%): suppressive rate on the intestinal permeability
Method: Test Example 2 Therapeutic Effect in Colitis Model
(1) TNBS Induced Colitis Model Rat
SD rats: 8-weeks-old male SLC (Japan SLC) were used. Under pentobarbital anesthesia, 300 μL of TNBS (28 mg/mL) prepared by 50% ethanol was administered at a point 8 cm from anus in large intestine to cause inflammation. To the solvent-treated group was administrated 300 μL of 50% ethanol. Animals were fasted for 48 hours prior to administration of TNBS. Test compounds (3 mg/kg) prepared by 0.05% methylcellulose solution were orally administered once a day from next day, and it was administered for a total of 3 days. After administering for 3 days, 50 mg/kg FITC was orally administered at 4 hours after administration. Blood samples were collected from jugular vein under isoflurane anesthesia after 4 hours. The serum was centrifuged and fluorescence intensity was detected by PHERAstar FSX (BMG Labtech) to measure the concentration of FITC permeating into circulating blood through the mesentery. The suppressive rate on the intestinal permeability of test compounds was calculated based on the value of test compounds-free group as 0 and the value of TNBS-untreated group as 100.

[4] = large intestine tissue (distal large intestine), read-out: Colon: concentrations of the test compound in large intestine tissue after 8 hours
[5] = plasma, read-out: Plasma: plasma test compound concentration after 8 hours

SMILES	concentration at 8 h [1, 4]	Kp at 8 h [1]	concentration at 8 h [1, 5]	AUC ([1]; plasma)	Cmax ([1]; plasma)	IC50 [2]	inhibition in vivo at 3 mg/kg [3]
Cn1ccnc1CN1CC[C@H](n2c(=O)n(-c3ccc(-c4ccc(C(=O)O)cc4)c(O)c3)c3cccnc32)C1 [Example 40, (S)-2′-Hydroxy-4′-(3-(1-((1-methyl-1H-imidazol-2-yl)methyl)pyrrolidin-3-yl)-2-oxo-2,3-dihydro-1H-imidazo[4,5-b]pyridin-1-yl)-[1,1′-biphenyl]-4-carboxylic acid]	209 ng/g	> 209	< 1 ng/mL		< 1 ng/mL	760 nM	84%
Cn1ccnc1CN1CC[C@H](n2c(=O)n(-c3ccc(-c4ccc(C(=O)O)cc4)nc3)c3cccnc32)C1 [Example 41, (S)-4-(5-(3-(1-((1-Methyl-1H-imidazol-2-yl)methyl)pyrrolidin-3-yl)-2-oxo-2,3-dihydro-1H-imidazo[4,5-b]pyridin-1-yl)pyridin-2-yl)benzoic acid]						1460 nM	74%
O=C(O)c1ccc(-c2ccc(-n3c(=O)n([C@H]4CCN(Cc5cc(C(=O)O)ccn5)C4)c4ncccc43)cc2)cc1 [Example 43, (S)-2-((3-(1-(4′-Carboxy-[1,1′-biphenyl]-4-yl)-2-oxo-1,2-dihydro-3H-imidazo[4,5-b]pyridin-3-yl)pyrrolidin-1-yl)methyl)isonicotinic acid]	84 ng/g	42	2 ng/mL	35.2 ng·h/mL	8 ng/mL	200 nM	59%
O=C(O)c1ccc(-c2ccc(-n3c(=O)n([C@H]4CCN(Cc5cc(C(=O)O)ccn5)C4)c4ncccc43)cn2)cc1 [Example 46, (S)-2-((3-(1-(6-(4-Carboxyphenyl)pyridin-3-yl)-2-oxo-1,2-dihydro-3H-imidazo[4,5-b]pyridin-3-yl)pyrrolidin-1-yl)methyl)isonicotinic acid]	174 ng/g	> 174	< 1 ng/mL	5.23 ng·h/mL	3 ng/mL	150 nM	63%
Cn1ccnc1CN1CC[C@H](n2c(=O)n(-c3ccc(-c4ccc(C(=O)O)cc4)cc3)c3cccnc32)C1 [Example 47, (S)-4′-(3-(1-((1-Methyl-1H-imidazol-2-yl)methyl)pyrrolidin-3-yl)-2-oxo-2,3-dihydro-1H-imidazo[4,5-b]pyridin-1-yl)-[1,1′-biphenyl]-4-carboxylic acid]	317 ng/g	18	18 ng/mL	334 ng·h/mL	60 ng/mL	410 nM	85%
Cn1c(C#N)cnc1CN1CC[C@H](n2c(=O)n(-c3ccc(-c4ccncc4)cc3)c3cccnc32)C1 [Example 80, (S)-1-Methyl-2-((3-(2-oxo-1-(4-(pyridin-4-yl)phenyl)-1,2-dihydro-3H-imidazo[4,5-b]pyridin-3-yl)pyrrolidin-1-yl)methyl)-1H-imidazole-5-carbonitrile]						65900 nM	
Cn1c(C(=O)O)cnc1CN1CC[C@H](n2c(=O)n(-c3ccc(-c4ccc(O)cc4)cc3)c3cccnc32)C1 [Example 82, (S)-2-((3-(1-(4′-Hydroxy-[1,1′-biphenyl]-4-yl)-2-oxo-1,2-dihydro-3H-imidazo[4,5-b]pyridin-3-yl)pyrrolidin-1-yl)methyl)-1-methyl-1H-imidazole-5-carboxylic acid]						130 nM	96%
Cn1c(C(=O)O)cnc1CN1CC[C@H](n2c(=O)n(-c3ccc(-c4ccc(C(=O)O)cc4)nc3)c3cccnc32)C1 [Example 85, (S)-2-((3-(1-(6-(4-Carboxyphenyl)pyridin-3-yl)-2-oxo-1,2-dihydro-3H-imidazo[4,5-b]pyridin-3-yl)pyrrolidin-1-yl)methyl)-1-methyl-1H-imidazole-5-carboxylic acid]	164 ng/g	> 164	< 1 ng/mL				101%
Cn1c(C(=O)O)cnc1CN1CC[C@H](n2c(=O)n(-c3ccc(-c4ccccc4)cc3)c3cccnc32)C1 [Example 86, (S)-2-((3-(1-([1,1′-Biphenyl]-4-yl)-2-oxo-1,2-dihydro-3H-imidazo[4,5-b]pyridin-3-yl)pyrrolidin-1-yl)methyl)-1-methyl-1H-imidazole-5-carboxylic acid]						270 nM	
Cn1c(C(=O)O)cnc1CN1CC[C@@H](n2c(=O)n(-c3ccc(-c4ccc(C(=O)O)cc4)nc3)c3cccnc32)C1 [Example 88, (R)-2-((3-(1-(6-(4-Carboxyphenyl)pyridin-3-yl)-2-oxo-1,2-dihydro-3H-imidazo[4,5-b]pyridin-3-yl)pyrrolidin-1-yl)methyl)-1-methyl-1H-imidazole-5-carboxylic acid]						270 nM	
Cc1cccnc1CN1CC[C@H](n2c(=O)n(-c3ccc(-c4ccncc4)cc3)c3cccnc32)C1 [Example 90, (S)-3-(1-((3-Methylpyridin-2-yl)methyl)pyrrolidin-3-yl)-1-(4-(pyridin-4-yl)phenyl)-1,3-dihydro-2H-imidazo[4,5-b]pyridin-2-one]						7460 nM	

Continued by falling IC50 [2], values first:

concentration at 8 h [1, 4]	Kp at 8 h [1]	concentration at 8 h [1, 5]	AUC ([1]; plasma)	Cmax ([1]; plasma)	IC50 [2]	SMILES	inhibition in vivo at 3 mg/kg [3]
					11000 nM	Cn1c(C(=O)O)cnc1CN1CC[C@H](n2c(=O)n(-c3ccc(C(=O)NCC(=O)O)nc3)c3cccnc32)C1 [Example 78, (S)-2-((3-(1-(6-((Carboxymethyl)carbamoyl)pyridin-3-yl)-2-oxo-1,2-dihydro-3H-imidazo[4,5-b]pyridin-3-yl)pyrrolidin-1-yl)methyl)-1-methyl-1H-imidazole-5-carboxylic acid]	
					3990 nM	Cn1c(C(=O)O)cnc1CN1CC[C@H](n2c(=O)n(-c3ccccc3)c3cccnc32)C1 [Example 87, (S)-1-Methyl-2-((3-(2-oxo-1-phenyl-1,2-dihydro-3H-imidazo[4,5-b]pyridin-3-yl)pyrrolidin-1-yl)methyl)-1H-imidazole-5-carboxylic acid]	
					3170 nM	Cc1cccnc1CN1CC[C@H](n2c(=O)n(-c3ccc(-c4ccc(O)cc4)cc3)c3cccnc32)C1 [Example 89, (S)-1-(4′-Hydroxy-[1,1′-biphenyl]-4-yl)-3-(1-((3-methylpyridin-2-yl)methyl)pyrrolidin-3-yl)-1,3-dihydro-2H-imidazo[4,5-b]pyridin-2-one]	
214 ng/g	71	3 ng/mL	34.8 ng·h/mL	7 ng/mL	340 nM	Cn1ccnc1CN1CC[C@H](n2c(=O)n(-c3ccc(-c4ccc(C(=O)O)cc4)cc3O)c3cccnc32)C1 [Example 39, (S)-3′-Hydroxy-4′-(3-(1-((1-methyl-1H-imidazol-2-yl)methyl)pyrrolidin-3-yl)-2-oxo-2,3-dihydro-1H-imidazo[4,5-b]pyridin-1-yl)-[1,1′-biphenyl]-4-carboxylic acid]	95%
87 ng/g	> 87	< 1 ng/mL	6.68 ng·h/mL	2 ng/mL	270 nM	O=C(O)c1ccc(-c2ccc(-n3c(=O)n([C@H]4CCN(Cc5cc(C(=O)O)ccn5)C4)c4ncccc43)cc2O)cc1 [Example 45, (S)-2-((3-(1-(4′-Carboxy-2-hydroxy-[1,1′-biphenyl]-4-yl)-2-oxo-1,2-dihydro-3H-imidazo[4,5-b]pyridin-3-yl)pyrrolidin-1-yl)methyl)isonicotinic acid]	51%
201 ng/g	> 201	< 1 ng/mL	15 ng·h/mL	4 ng/mL	120 nM	Cn1c(C(=O)O)cnc1CN1CC[C@H](n2c(=O)n(-c3ccc(-c4ccc(C(=O)O)cc4)cc3O)c3cccnc32)C1 [Example 49, (S)-2-((3-(1-(4′-Carboxy-3-hydroxy-[1,1′-biphenyl]-4-yl)-2-oxo-1,2-dihydro-3H-imidazo[4,5-b]pyridin-3-yl)pyrrolidin-1-yl)methyl)-1-methyl-1H-imidazole-5-carboxylic acid]	82%
